Laboratory results published in ChEMBL document CHEMBL5214947, “Photoprotective effect of 18β-glycyrrhetinic acid derivatives against ultra violet (UV)-B-Induced skin aging” (Bioorg Med Chem Lett, 2022).
The source made the active and inactive calls. No cut-off for these calls is given here.

Tests used:
NHDF [1] = experiment: Cytotoxicity against human HDF cells assessed as reduction in cell viability at 10 uM incubated for 24 hrs by MTT assay; type: toxicity, cell-based
NHDF [2] = experiment: Cytoprotective activity against human HDF cells assessed as increase in cell viability at 10 uM incubated for 24 hrs by MTT assay; type: functional
NHDF [3] = experiment: Antioxidant activity in UV-B irradiation induced human HDF cells assessed as decrease in ROS level at 25 uM incubated for 6 hrs by fluorescence microscopy; type: functional, cell-based
NHDF [4] = experiment: Cytoprotective activity against UV-B irradiation induced human HDF cells assessed as increase in cell viability at 10 uM incubated for 24 hrs by MTT assay; type: functional
NHDF [5] = experiment: Cytoprotective activity against UV-B irradiation induced human HDF cells assessed as increase in cell viability at 25 uM incubated for 24 hrs by MTT assay; type: functional
NHDF [6] = experiment: Antiapoptotic activity in UV-B irradiation induced human HDF cells assessed as upregulation of catalase expression level at 10 to 25 uM incubated for 24 hrs by western blot analysis; type: functional, cell-based; details: dose 10-25 µM
NHDF [7] = experiment: Antiapoptotic activity in UV-B irradiation induced human HDF cells assessed as decrease in mitochondrial membrane potential loss at 10 to 25 uM incubated for 24 hrs by JC-9 staining fluorescence microscopy; type: functional, cell-based; details: dose 10-25 µM, DDE = dose-dependent effect
NHDF [8] = experiment: Antiapoptotic activity in UV-B irradiation induced human HDF cells assessed as upregulation of procollagen-1 expression level at 10 to 25 uM incubated for 24 hrs by western blot analysis; type: functional, cell-based; details: dose 10-25 µM
NHDF [9] = experiment: Antiapoptotic activity in UV-B irradiation induced human HDF cells assessed as downregulation of MMP1 expression level at 10 to 25 uM incubated for 24 hrs by western blot analysis; type: functional, cell-based; details: dose 10-25 µM
NHDF [10] = experiment: Antioxidant activity in UV-B irradiation induced human HDF cells assessed as decrease in ROS level at 10 to 25 uM incubated for 6 hrs by fluorescence microscopy; type: functional, cell-based; details: dose 10-25 µM, DDE = dose-dependent effect
NHDF [11] = experiment: Antiapoptotic activity in UV-B irradiation induced human HDF cells assessed as upregulation of catalase expression level at 50 uM incubated for 24 hrs by western blot analysis; type: functional, cell-based

Row | Compound | Activity (NHDF [1]) | Activity (NHDF [2]) | also measured
1 | CC1(C)C(=O)/C(=C/c2cccc(F)c2)C[C@]2(C)[C@H]3C(=O)C=C4[C@@H]5C[C@@](C)(C(=O)O)CC[C@]5(C)CC[C@@]4(C)[C@]3(C)CC[C@@H]12 | 6.5% | – | –
2 | CC1(C)[C@@H](O)/C(=C/c2ccc(Br)cc2)C[C@]2(C)[C@H]3C(=O)C=C4[C@@H]5C[C@@](C)(C(=O)O)CC[C@]5(C)CC[C@@]4(C)[C@]3(C)CC[C@@H]12 | – | 103.5% | –
3 | CC1(C)C(=O)/C(=C/c2ccncc2)C[C@]2(C)[C@H]3C(=O)C=C4[C@@H]5C[C@@](C)(C(=O)O)CC[C@]5(C)CC[C@@]4(C)[C@]3(C)CC[C@@H]12 | 8.3% | – | –
4 | COc1ccc(/C=C2\C[C@]3(C)[C@H]4C(=O)C=C5[C@@H]6C[C@@](C)(C(=O)O)CC[C@]6(C)CC[C@@]5(C)[C@]4(C)CC[C@H]3C(C)(C)[C@H]2O)c(Br)c1O | 20.2% | – | –
5 | COc1ccc(/C=C2\C[C@]3(C)[C@H]4C(=O)C=C5[C@@H]6C[C@@](C)(C(=O)O)CC[C@]6(C)CC[C@@]5(C)[C@]4(C)CC[C@H]3C(C)(C)[C@H]2O)cc1 | – | 112.5% | –
6 | CCc1ccc(/C=C2\C[C@]3(C)[C@H]4C(=O)C=C5[C@@H]6C[C@@](C)(C(=O)O)CC[C@]6(C)CC[C@@]5(C)[C@]4(C)CC[C@H]3C(C)(C)[C@H]2O)cc1 | – | 114.5% | –
7 | Cc1ccc(/C=C2\C[C@]3(C)[C@H]4C(=O)C=C5[C@@H]6C[C@@](C)(C(=O)O)CC[C@]6(C)CC[C@@]5(C)[C@]4(C)CC[C@H]3C(C)(C)C2=O)cc1 | 30.5% | – | –
8 | CC1(C)C(=O)/C(=C/c2cccc3ccccc23)C[C@]2(C)[C@H]3C(=O)C=C4[C@@H]5C[C@@](C)(C(=O)O)CC[C@]5(C)CC[C@@]4(C)[C@]3(C)CC[C@@H]12 | 11.5% | – | –
9 | O=C1O[C@H]([C@@H](O)CO)C(O)=C1O | – | – | Activity (NHDF [3]): Active
10 | COc1ccc(/C=C2\C[C@]3(C)[C@H]4C(=O)C=C5[C@@H]6C[C@@](C)(C(=O)O)CC[C@]6(C)CC[C@@]5(C)[C@]4(C)CC[C@H]3C(C)(C)C2=O)cc1 | 11.5% | – | –
11 | COc1ccc(/C=C2\C[C@]3(C)[C@H]4C(=O)C=C5[C@@H]6C[C@@](C)(C(=O)O)CC[C@]6(C)CC[C@@]5(C)[C@]4(C)CC[C@H]3C(C)(C)C2=O)c(F)c1 | 19.1% | – | –
12 | COc1cc(Br)c(/C=C2\C[C@]3(C)[C@H]4C(=O)C=C5[C@@H]6C[C@@](C)(C(=O)O)CC[C@]6(C)CC[C@@]5(C)[C@]4(C)CC[C@H]3C(C)(C)C2=O)cc1O | – | 104.7% | Activity (NHDF [4]): 3%
13 | CSc1ccc(/C=C2\C[C@]3(C)[C@H]4C(=O)C=C5[C@@H]6C[C@@](C)(C(=O)O)CC[C@]6(C)CC[C@@]5(C)[C@]4(C)CC[C@H]3C(C)(C)C2=O)cc1 | 8.4% | – | –
14 | CCc1ccc(/C=C2\C[C@]3(C)[C@H]4C(=O)C=C5[C@@H]6C[C@@](C)(C(=O)O)CC[C@]6(C)CC[C@@]5(C)[C@]4(C)CC[C@H]3C(C)(C)C2=O)cc1 | 28.8% | – | –
15 | CCOc1cccc(/C=C2\C[C@]3(C)[C@H]4C(=O)C=C5[C@@H]6C[C@@](C)(C(=O)O)CC[C@]6(C)CC[C@@]5(C)[C@]4(C)CC[C@H]3C(C)(C)[C@H]2O)c1 | – | 100.1% | –
16 | COc1ccccc1/C=C1\C[C@]2(C)[C@H]3C(=O)C=C4[C@@H]5C[C@@](C)(C(=O)O)CC[C@]5(C)CC[C@@]4(C)[C@]3(C)CC[C@H]2C(C)(C)[C@H]1O | – | 114.5% | Activity (NHDF [4]): 6%
17 | Cc1ccc(/C=C2\C[C@]3(C)[C@H]4C(=O)C=C5[C@@H]6C[C@@](C)(C(=O)O)CC[C@]6(C)CC[C@@]5(C)[C@]4(C)CC[C@H]3C(C)(C)C2=O)s1 | 12.2% | – | –

Row | Compound | Activity (NHDF [1]) | Activity (NHDF [2]) | also measured
18 | COc1cc(Br)c(/C=C2\C[C@]3(C)[C@H]4C(=O)C=C5[C@@H]6C[C@@](C)(C(=O)O)CC[C@]6(C)CC[C@@]5(C)[C@]4(C)CC[C@H]3C(C)(C)[C@H]2O)cc1O | 10.3% | – | –
19 | CC1(C)C(=O)CC[C@]2(C)[C@H]3C(=O)C=C4[C@@H]5C[C@@](C)(C(=O)O)CC[C@]5(C)CC[C@@]4(C)[C@]3(C)CC[C@@H]12 | 5.2% | – | –
20 | CC1(C)C(=O)/C(=C/c2ccc(Cl)cc2)C[C@]2(C)[C@H]3C(=O)C=C4[C@@H]5C[C@@](C)(C(=O)O)CC[C@]5(C)CC[C@@]4(C)[C@]3(C)CC[C@@H]12 | – | 113.9% | –
21 | COc1ccc(/C=C2\C[C@]3(C)[C@H]4C(=O)C=C5[C@@H]6C[C@@](C)(C(=O)O)CC[C@]6(C)CC[C@@]5(C)[C@]4(C)CC[C@H]3C(C)(C)C2=O)c(Br)c1O | 10% | – | –
22 | CC1(C)[C@@H](O)/C(=C/c2ccccc2)C[C@]2(C)[C@H]3C(=O)C=C4[C@@H]5C[C@@](C)(C(=O)O)CC[C@]5(C)CC[C@@]4(C)[C@]3(C)CC[C@@H]12 | 7.4% | – | –
23 | CSc1ccc(/C=C2\C[C@]3(C)[C@H]4C(=O)C=C5[C@@H]6C[C@@](C)(C(=O)O)CC[C@]6(C)CC[C@@]5(C)[C@]4(C)CC[C@H]3C(C)(C)[C@H]2O)cc1 | – | 109.5% | Activity (NHDF [5]): 12%
24 | Cc1ccc(/C=C2\C[C@]3(C)[C@H]4C(=O)C=C5[C@@H]6C[C@@](C)(C(=O)O)CC[C@]6(C)CC[C@@]5(C)[C@]4(C)CC[C@H]3C(C)(C)[C@H]2O)s1 | – | 101.1% | –
25 | COc1ccc(/C=C2\C[C@]3(C)[C@H]4C(=O)C=C5[C@@H]6C[C@@](C)(C(=O)O)CC[C@]6(C)CC[C@@]5(C)[C@]4(C)CC[C@H]3C(C)(C)[C@H]2O)c(F)c1 | – | 106.7% | Activity (NHDF [6]): Active; Activity (NHDF [7]): Dde; Activity (NHDF [8]): Active; Activity (NHDF [4]): 8.3%; Activity (NHDF [9]): Active; Activity (NHDF [5]): 19.5%; Activity (NHDF [10]): Dde
26 | CCOc1cccc(/C=C2\C[C@]3(C)[C@H]4C(=O)C=C5[C@@H]6C[C@@](C)(C(=O)O)CC[C@]6(C)CC[C@@]5(C)[C@]4(C)CC[C@H]3C(C)(C)C2=O)c1 | 35.7% | – | –
27 | CC1(C)C(=O)/C(=C/c2ccccc2)C[C@]2(C)[C@H]3C(=O)C=C4[C@@H]5C[C@@](C)(C(=O)O)CC[C@]5(C)CC[C@@]4(C)[C@]3(C)CC[C@@H]12 | 11.5% | – | –
28 | CC1(C)[C@@H](O)/C(=C/c2ccncc2)C[C@]2(C)[C@H]3C(=O)C=C4[C@@H]5C[C@@](C)(C(=O)O)CC[C@]5(C)CC[C@@]4(C)[C@]3(C)CC[C@@H]12 | 3.2% | – | –
29 | COc1ccccc1/C=C1\C[C@]2(C)[C@H]3C(=O)C=C4[C@@H]5C[C@@](C)(C(=O)O)CC[C@]5(C)CC[C@@]4(C)[C@]3(C)CC[C@H]2C(C)(C)C1=O | 5.9% | – | –
30 | CC1(C)[C@@H](O[C@H]2O[C@H](C(=O)O)[C@@H](O)[C@H](O)[C@H]2O[C@@H]2O[C@H](C(=O)O)[C@@H](O)[C@H](O)[C@H]2O)CC[C@]2(C)[C@H]3C(=O)C=C4[C@@H]5C[C@@](C)(C(=O)O)CC[C@]5(C)CC[C@@]4(C)[C@]3(C)CC[C@@H]12 | – | – | Activity (NHDF [11]): Active
31 | CC1(C)[C@@H](O)CC[C@]2(C)[C@H]3C(=O)C=C4[C@@H]5C[C@@](C)(C(=O)O)CC[C@]5(C)CC[C@@]4(C)[C@]3(C)CC[C@@H]12 [ENOXOLONE] | – | 106.4% | Activity (NHDF [4]): 1%; Activity (NHDF [5]): 17%
32 | CC1(C)[C@@H](O)/C(=C/c2cccc(F)c2)C[C@]2(C)[C@H]3C(=O)C=C4[C@@H]5C[C@@](C)(C(=O)O)CC[C@]5(C)CC[C@@]4(C)[C@]3(C)CC[C@@H]12 | 4.4% | – | –
33 | CC1(C)[C@@H](O)/C(=C/c2cccc3ccccc23)C[C@]2(C)[C@H]3C(=O)C=C4[C@@H]5C[C@@](C)(C(=O)O)CC[C@]5(C)CC[C@@]4(C)[C@]3(C)CC[C@@H]12 | – | 110.1% | –
34 | CC1(C)C(=O)/C(=C/c2ccc(Br)cc2)C[C@]2(C)[C@H]3C(=O)C=C4[C@@H]5C[C@@](C)(C(=O)O)CC[C@]5(C)CC[C@@]4(C)[C@]3(C)CC[C@@H]12 | 17.5% | – | –
